The compounds below were run against AMPK (assay: AMPK activation, enzyme-linked immunosorbent assay). Details: compounds of Table 1 (Table 6).
Type: biochemical
With `O=C(NC1CCN(Cc2ccncc2)CC1)c1cc2ccc(OC3CCN(c4ccc(C(F)(F)F)cc4)CC3)cc2o1` [1-87, N-(1-(pyridin-4-ylmethyl)piperidin-4-yl)-6-(1-(4-(trifluoromethyl)phenyl)piperidin-4-yloxy)benzofuran-2-carboxamide] the EC50 was less than 100 nM.
`N#Cc1ccccc1CN1CCC(NC(=O)c2cc3ccc(OC4CCN(c5ccc(OC(F)(F)F)cc5)CC4)cc3o2)CC1` [1-97, N-(1-(2-cyanobenzyl)piperidin-4-yl)-6-(1-(4-(trifluoromethoxy)phenyl)piperidin-4-yloxy)benzofuran-2-carboxamide] gave an EC50 of less than 100 nM.
Work on `O=C(N[C@H]1CCN(Cc2ccncc2)C1)c1ccc(OC2CCN(c3ccc(C(F)(F)F)cc3)CC2)cn1` [1-30, (S)-N-(1-(pyridin-4-ylmethyl)pyrrolidin-3-yl)-5-(1-(4-(trifluoromethyl)phenyl)piperidin-4-yloxy)picolinamide] yielded an EC50 of less than 100 nM.
`O=C(N[C@H]1CCNC1)c1cc2cc(OC3CCN(Cc4ccc(Cl)cc4)CC3)ccc2o1` [1-128, (S)-5-(1-(4-chlorobenzyl)piperidin-4-yloxy)-N-(pyrrolidin-3-yl)benzofuran-2-carboxamide] gave an EC50 greater than 10000 nM.
Work on `N#Cc1ccc(CN2CCC(Oc3ccc(S(=O)(=O)NC4CCN(Cc5ccncc5)CC4)cn3)CC2)cc1` [1-53, 6-(1-(4-cyanobenzyl)piperidin-4-yloxy)-N-(1-(pyridin-4-ylmethyl)piperidin-4-yl)pyridine-3-sulfonamide] yielded an EC50 of 100 to 500 nM.
`COC(=O)c1ccc(CN2CCC(NC(=O)c3ccc(OC4CCN(c5ccc(C#N)cc5)CC4)cn3)CC2)cc1` [1-7, methyl 4-((4-(5-(1-(4-cyanophenyl)piperidin-4-yloxy)picolinamido)piperidin-1-yl)methyl)benzoate] gave an EC50 of less than 100 nM.
Work on `Cc1c(C(=O)NC2CCN(Cc3ccncc3)CC2)oc2cc(OC3CCN(c4ccc(C(F)(F)F)cc4)CC3)ccc12` [1-65, 3-methyl-N-(1-(pyridin-4-ylmethyl)piperidin-4-yl)-6-(1-(4-(trifluoromethyl)phenyl)piperidin-4-yloxy)benzofuran-2-carboxamide] yielded an EC50 of less than 100 nM.
In the case of `N#Cc1ccc(CN2CC[C@H](NC(=O)c3ccc(OC4CCN(c5ccc(C(F)(F)F)cc5)CC4)cn3)C2)cc1` [1-31, (S)-N-(1-(4-cyanobenzyl)pyrrolidin-3-yl)-5-(1-(4-(trifluoromethyl)phenyl)piperidin-4-yloxy)picolinamide], the EC50 is reported as less than 100 nM.
For `N#Cc1ccc(N2CCC(Oc3ccc(C(=O)NC4CCN(Cc5ccncc5)CC4)nc3)CC2)cc1` [1-1, 5-(1-(4-cyanophenyl)piperidin-4-yloxy)-N-(1-(pyridin-4-ylmethyl)piperidin-4-yl)picolinamide], the EC50 was 100 to 500 nM.
Compound `Cc1c(C(=O)NC2CCNCC2)oc2cc(OC3CCN(c4ccc(C(F)(F)F)cc4)CC3)ccc12` [1-62, 3-methyl-N-(piperidin-4-yl)-6-(1-(4-(trifluoromethyl)phenyl)piperidin-4-yloxy)benzofuran-2-carboxamide] has an EC50 of 5000 to 10000 nM.
With `O=C(NC1CCN(Cc2cccnc2)CC1)c1cncc(OC2CCN(c3ccc(C(F)(F)F)cc3)CC2)c1` [1-18, N-(1-(pyridin-3-ylmethyl)piperidin-4-yl)-5-(1-(4-(trifluoromethyl)phenyl)piperidin-4-yloxy)nicotinamide] the EC50 was less than 100 nM.
`O=C(NC1CCN(Cc2ccccc2)CC1)c1ccc(OC2CCN(c3ccc(C(F)(F)F)cc3)CC2)cn1` [1-38, N-(1-benzylpiperidin-4-yl)-5-(1-(4-(trifluoromethyl)phenyl)piperidin-4-yloxy)picolinamide] was tested, and the EC50 was 1000 to 5000 nM.
In the case of `O=C(NC1CCN(Cc2ccncc2)CC1)c1cc2cc(OC3CCN(c4ccc(OC(F)(F)F)cc4)CC3)ccc2o1` [1-78, N-(1-(pyridin-4-ylmethyl)piperidin-4-yl)-5-(1-(4-(trifluoromethoxy)phenyl)piperidin-4-yloxy)benzofuran-2-carboxamide], the EC50 is reported as less than 100 nM.
For `NC(=O)c1ccc(CN2CCC(Oc3ccc4oc(C(=O)NC5CCN(Cc6ccccc6)CC5)cc4c3)CC2)cc1` [1-116, N-(1-benzylpiperidin-4-yl)-5-(1-(4-carbamoylbenzyl)piperidin-4-yloxy)benzofuran-2-carboxamide], the EC50 was 100 to 500 nM.
For `O=C(NC1CCN(Cc2cccnc2)CC1)c1cc2cc(OC3CCN(c4ccc(C(F)(F)F)cc4)CC3)ccc2o1` [1-101, N-(1-(pyridin-3-ylmethyl)piperidin-4-yl)-5-(1-(4-(trifluoromethyl)phenyl)piperidin-4-yloxy)benzofuran-2-carboxamide], the EC50 was less than 100 nM.

Same assay, conditions: compounds of Table 2 (Table 7)
Work on `N#Cc1ccc(CN2CCC(NC(=O)c3ccc4[nH]c5c(c4c3)CN(S(=O)(=O)c3ccc(C(F)(F)F)cc3)CC5)CC2)cc1` [2-24, N-(1-(4-cyanobenzyl)piperidin-4-yl)-2-(4-(trifluoromethyl)phenylsulfonyl)-2,3,4,5-tetrahydro-1H-pyrido [4,3-b]indole-8-carboxamide] yielded an EC50 of 1000 to 5000 nM.
`O=C(NC1CCN(Cc2ccc(C(F)(F)F)cc2)CC1)c1ccc2[nH]c3c(c2c1)CN(Cc1ccc(C(F)(F)F)cc1)CC3` [2-13, N-(1-(4-trifluoromethyl-benzyl)piperidin-4-yl)-2-(4-(trifluoro-methyl)benzyl)-2,3,4,5-tetrahydro-1H-pyrido[4,3-b]indole-8-carboxamide] was tested, and the EC50 was less than 500 nM.
`Cn1cnc(CN2CCC(NC(=O)c3ccc4[nH]c5c(c4c3)CN(Cc3ccc(C(F)(F)F)cc3)CC5)CC2)c1` [2-53, N-(1-((1-methyl-1H-imidazol-4-yl)methyl)piperidin-4-yl)-2-(4-(trifluoromethyl)benzyl)-2,3,4,5-tetrahydro-1H-pyrido [4,3-b]indole-8-carboxamide] was tested, and the EC50 was 10000 to 50000 nM.
Work on `NC(=O)c1ccc(CN2CCC(NC(=O)c3ccc4[nH]c5c(c4c3)CN(Cc3ccc(C(F)(F)F)cc3)CC5)CC2)cc1` [2-52, N-(1-(4-carbamoyl-benzyl)piperidin-4-yl)-2-(4-(trifluoromethyl)benzyl)-2,3,4,5-tetrahydro-1H-pyrido [4,3-b]indole-8-carboxamide] yielded an EC50 of 1000 to 5000 nM.
For `N#Cc1ccc(CN2CCC(NC(=O)c3ccc4[nH]c5c(c4c3)CN(Cc3ccc(C(N)=O)cc3)CC5)CC2)cc1` [2-44, 2-(4-carbamoylbenzyl)-N-(1-(4-cyanobenzyl)piperidin-4-yl)-2,3,4,5-tetrahydro-1H-pyrido [4,3-b]indole-8-carboxamide], the EC50 was 10000 to 50000 nM.

Same assay, conditions: compounds of Table 3 (Table 8)
`N#Cc1ccc(CN2CCC(NC(=O)c3ccc(C(=O)NC4CCN(c5ccccc5)CC4)cc3)CC2)cc1` [3-32, N^1-(1-(4-cyanobenzyl)piperidin-4-yl)-N^4-(1-phenylpiperidin-4-yl)terephthalamide] gave an EC50 of 10000 to 100000 nM.
For `O=C(c1nc2ccc(OC3CCN(c4ccc(C(F)(F)F)cc4)CC3)cc2o1)N1CC2CC1CN2Cc1ccncc1` (stereo not shown) [3-8, (5-(pyridin-4-ylmethyl)-2,5-diazabicyclo[2.2.1]heptan-2-yl)(6-(1-(4-(trifluoromethyl)phenyl)piperidin-4-yloxy)benzo[d]oxazol-2-yl)methanone], the EC50 was 100 to 1000 nM.

Same assay, conditions: compounds of Table 4 (Table 9)
Compound `O=C(N[C@H]1CCN(Cc2ccc(Cl)cc2)C1)c1ccc(C(=O)N2CCN(c3ccc(Cl)cc3)CC2)cn1` [4-7, N-(1-(4-chlorobenzyl)pyrrolidin-3-yl)-5-(4-(4-chlorophenyl)piperazine-1-carbonyl)picolinamide] has an EC50 of 1000 to 5000 nM.

Same assay, conditions: compounds of Table 5 (Table 10)
Compound `O=C(NC1CCN(Cc2ccccc2)CC1)c1cccc(OC2CCN(c3ccccn3)CC2)c1` [5-86, N-(1-benzylpiperidin-4-yl)-3-(1-(pyridin-2-yl)piperidin-4-yloxy)benzamide] has an EC50 of less than 1000 nM.
Compound `O=C(NC1CCN(Cc2ccccc2)CC1)c1ccc(OC2CCN(Cc3ccc(F)c(F)c3)CC2)c(Cl)c1` [5-74, N-(1-benzylpiperidin-4-yl)-3-chloro-4-(1-(3,4-difluorobenzyl)piperidin-4-yloxy)benzamide] has an EC50 of less than 1000 nM.
Work on `N#Cc1ccc(CN2CCC(NC(=O)c3ccc(OC4CCN(c5ccc(C#N)cc5)CC4)c(F)c3)CC2)cc1` [5-45, N-(1-(4-cyanobenzyl)piperidin-4-yl)-4-(1-(4-cyanophenyl)piperidin-4-yloxy)-3-fluorobenzamide] yielded an EC50 of less than 1000 nM.
`CC(C)S(=O)(=O)N1CCC(NC(=O)c2ccc(OC3CCN(c4ccc(C(F)(F)F)cc4)CC3)c(F)c2)CC1` [5-34, 3-fluoro-N-(1-(isopropylsulfonyl)piperidin-4-yl)-4-(1-(4-(trifluoromethyl)phenyl)piperidin-4-yloxy)benzamide] showed an EC50 of less than 1000 nM.
`O=C(c1ccc(OC2CCN(Cc3ccccc3)CC2)cc1)N1CCN(Cc2ccccn2)CC1` [5-105, (4-(1-benzylpiperidin-4-yloxy)phenyl)(4-(pyridin-2-ylmethyl)piperazin-1-yl)methanone] was tested, and the EC50 was 10000 to 20000 nM.
Compound `O=C(NC1CCN(Cc2ccccc2)CC1)c1cc(Cl)c(OC2CCN(Cc3cccc(C(F)(F)F)c3)CC2)c(Cl)c1` [5-62, N-(1-benzylpiperidin-4-yl)-3,5-dichloro-4-(1-(3-(trifluoromethyl)benzyl)piperidin-4-yloxy)benzamide] has an EC50 of less than 1000 nM.
Work on `O=C(NC1CCN(Cc2ccccc2)CC1)c1ccc(OC2CCN(Cc3ccc(OC(F)(F)F)cc3)CC2)cc1` [5-63, N-(1-benzylpiperidin-4-yl)-4-(1-(4-(trifluoromethoxy)benzyl)piperidin-4-yloxy)benzamide] yielded an EC50 of less than 1000 nM.
Compound `CC(C)(C)OC(=O)NCCCNC(=O)c1ccc(OC2CCN(Cc3ccccc3)CC2)c(Cl)c1` [5-102, tert-butyl 3-(4-(1-benzylpiperidin-4-yloxy)-3-chlorobenzamido)propylcarbamate] has an EC50 of 10000 to 20000 nM.
For `COc1cc(C(=O)NC2CCN(Cc3ccccc3)CC2)ccc1OC1CCN(c2ccco2)CC1` [5-12, N-(1-benzylpiperidin-4-yl)-3-methoxy-4-(1-(furan-2-yl)piperidin-4-yloxy)benzamide], the EC50 was 1000 to 10000 nM.
Compound `COc1cc(C(=O)NCCCNC(=O)OC(C)(C)C)ccc1OC1CCN(Cc2ccc(C(F)(F)F)cc2)CC1` [5-94, tert-butyl 3-(3-methoxy-4-(1-(4-(trifluoromethyl)benzyl)piperidin-4-yloxy)benzamido)propylcarbamate] has an EC50 of less than 1000 nM.
`O=C(NC1CCN(Cc2ccccc2)CC1)c1ccc(OC2CCN(C(=O)c3ccc(C(F)(F)F)cc3)CC2)c(Cl)c1` [5-18, N-(1-benzylpiperidin-4-yl)-3-chloro-4-(1-(4-(trifluoromethyl)benzoyl)piperidin-4-yloxy)benzamide] was tested, and the EC50 was less than 1000 nM.

Reference: patent publication US9511058B2, “Methods for using carboxamide, sulfonamide and amine compounds” (Rigel Pharmaceuticals, Inc., priority 2010, dated 2016)
